Measurements: patent US20240228448A1 (Washington University, priority 2021, published 2024)
Values joined by “and” are separate entries in the source; they are usually repeats but may differ in a detail not shown here. Equal entries are not always repeated.

Experiment: Ex vivo biodistribution study in Sprague Dawley rats
Settings: SD rats
Experimental: To evaluate the kinetics and the tissue distribution of [^18F]FS1P1 in rodents, Sprague Dawley (SD) male rats (6-7 weeks old; 200-300 g) were used and euthanized at 5, 30, 60, and 120 min post-injection. The radioactivity uptake of each organ was calculated as percentage injected dose per gram (% ID/gram). As shown in FIG. 7A-FIG. 7B, the initial tracer uptake was high in most tissues at 5 min. The liver had the highest uptake (% ID/g) at 3.04±0.18, whereas the heart, lung, spleen, kidney, and small intestine had moderate to high uptake at 1.39±0.15, 1.44±0.13, 1.14±0.13, 1.76±0.15, and 1.00±0.21 respectively. The radioactivity was rapidly washed out from heart, lung, pancreas, spleen, kidney, and liver, at 30 min post injection with ID %/g values decreasing to 0.55±0.02, 0.84±0.05, 0.66±0.04, 0.54±0.03, 1.13±0.66, and 2.51±0.10 respectively as shown in FIG. 7A.
A dose of [^18F]FS1P1 (˜3.7 MBq/100 μL) was injected via the tail vein into SD rats (male; 6-7 weeks old; 200-300 g). Rats were euthanized under anesthesia at 5, 30, 60, and 120 min post-injection (n=4 per group). Tissues of interest including blood, heart, lung, muscle, fat, pancreas, spleen, kidney, liver, brain, bone, thymus, small intestine, and large intestine were collected, weighed, and counted on an automated Beckman Gamma counter (Beckman, Brea, CA). To evaluate the uptake of [^18F]FS1P1 within the brain, brain dissection was performed and different brain regions including brain stem, cerebellum, cortex, striatum, thalamus, and hippocampus were collected and evaluated. The uptake of each organ was calculated and expressed as a percentage of the injection dose per gram of wet tissue (% ID per gram).

## Cc1ccccc1-c1ccc(-c2nc(-c3ccc(CN(C)CCC(=O)O)c([18F])c3)no2)cc1C(F)(F)F [[^18F]FS1P1]
Blood, 5 min post-injection
  Tissue uptake (% ID/g): 0.16 ± 0.09 % ID/g
Blood, 30 min post-injection
  Tissue uptake (% ID/g): 0.13 ± 0.01 % ID/g
Blood, 60 min post-injection
  Tissue uptake (% ID/g): 0.13 ± 0.01 % ID/g
Blood, 120 min post-injection
  Tissue uptake (% ID/g): 0.10 ± 0.01 % ID/g
Bone, 5 min post-injection
  Tissue uptake (% ID/g): 0.20 ± 0.13 % ID/g
Bone, 30 min post-injection
  Tissue uptake (% ID/g): 0.16 ± 0.01 % ID/g
Bone, 60 min post-injection
  Tissue uptake (% ID/g): 0.15 ± 0.02 % ID/g
Bone, 120 min post-injection
  Tissue uptake (% ID/g): 0.11±0.02 % ID/g
Brain stem, 5 min post-injection
  Tissue uptake (% ID/g): 0.48 ± 0.14 % ID/g
Brain stem, 30 min post-injection
  Tissue uptake (% ID/g): 0.52 ± 0.03 % ID/g
Brain stem, 60 min post-injection
  Tissue uptake (% ID/g): 0.68 ± 0.07 % ID/g
Brain stem, 120 min post-injection
  Tissue uptake (% ID/g): 0.71 ± 0.11 % ID/g
Cerebellum, 5 min post-injection
  Tissue uptake (% ID/g): 0.42 ± 0.28 % ID/g
Cerebellum, 30 min post-injection
  Tissue uptake (% ID/g): 0.52 ± 0.05 % ID/g
Cerebellum, 60 min post-injection
  Tissue uptake (% ID/g): 0.66 ± 0.07 % ID/g
Cerebellum, 120 min post-injection
  Tissue uptake (% ID/g): 0.77 ± 0.12 % ID/g
Cortex, 5 min post-injection
  Tissue uptake (% ID/g): 0.35 ± 0.25 % ID/g
Cortex, 30 min post-injection
  Tissue uptake (% ID/g): 0.51 ± 0.07 % ID/g
Cortex, 60 min post-injection
  Tissue uptake (% ID/g): 0.59 ± 0.13 % ID/g
Cortex, 120 min post-injection
  Tissue uptake (% ID/g): 0.67 ± 0.10 % ID/g
Fat, 5 min post-injection
  Tissue uptake (% ID/g): 0.05 ± 0.03 % ID/g
Fat, 30 min post-injection
  Tissue uptake (% ID/g): 0.16 ± 0.02 % ID/g
Fat, 60 min post-injection
  Tissue uptake (% ID/g): 0.15 ± 0.02 % ID/g
Fat, 120 min post-injection
  Tissue uptake (% ID/g): 0.14 ± 0.02 % ID/g
Heart, 5 min post-injection
  Tissue uptake (% ID/g): 1.02 ± 0.69 % ID/g
Heart, 30 min post-injection
  Tissue uptake (% ID/g): 0.55±0.02 % ID/g and 0.54 ± 0.03 % ID/g
Heart, 60 min post-injection
  Tissue uptake (% ID/g): 0.49 ± 0.02 % ID/g
Heart, 120 min post-injection
  Tissue uptake (% ID/g): 0.39 ± 0.07 % ID/g
Hippocampus, 5 min post-injection
  Tissue uptake (% ID/g): 0.32 ± 0.21 % ID/g
Hippocampus, 30 min post-injection
  Tissue uptake (% ID/g): 0.41 ± 0.03 % ID/g
Hippocampus, 60 min post-injection
  Tissue uptake (% ID/g): 0.54 ± 0.03 % ID/g
Hippocampus, 120 min post-injection
  Tissue uptake (% ID/g): 0.42 ± 0.28 % ID/g
Kidney, 5 min post-injection
  Tissue uptake (% ID/g): 1.33 ± 0.87 % ID/g
Kidney, 30 min post-injection
  Tissue uptake (% ID/g): 1.13±0.66 % ID/g and 1.13 ± 0.13 % ID/g
Kidney, 60 min post-injection
  Tissue uptake (% ID/g): 1.10 ± 0.08 % ID/g
Kidney, 120 min post-injection
  Tissue uptake (% ID/g): 1.02 ± 0.17 % ID/g
Liver, 5 min post-injection
  Tissue uptake (% ID/g): 2.30 ± 1.50 % ID/g
Liver, 30 min post-injection
  Tissue uptake (% ID/g): 2.51±0.10 % ID/g and 2.51 ± 0.20 % ID/g
Liver, 60 min post-injection
  Tissue uptake (% ID/g): 2.32 ± 0.10 % ID/g
Liver, 120 min post-injection
  Tissue uptake (% ID/g): 2.08 ± 0.47 % ID/g
Lung, 5 min post-injection
  Tissue uptake (% ID/g): 1.08 ± 0.74 % ID/g
Lung, 30 min post-injection
  Tissue uptake (% ID/g): 0.84±0.05 % ID/g and 0.84 ± 0.09 % ID/g
Lung, 60 min post-injection
  Tissue uptake (% ID/g): 0.68 ± 0.04 % ID/g
Lung, 120 min post-injection
  Tissue uptake (% ID/g): 0.43 ± 0.30 % ID/g
Muscle, 5 min post-injection
  Tissue uptake (% ID/g): 0.11 ± 0.07 % ID/g
Muscle, 30 min post-injection
  Tissue uptake (% ID/g): 0.19 ± 0.01 % ID/g
Muscle, 60 min post-injection
  Tissue uptake (% ID/g): 0.18 ± 0.05 % ID/g
Muscle, 120 min post-injection
  Tissue uptake (% ID/g): 0.15 ± 0.02 % ID/g
Pancreas, 5 min post-injection
  Tissue uptake (% ID/g): 0.72 ± 0.47 % ID/g
Pancreas, 30 min post-injection
  Tissue uptake (% ID/g): 0.66±0.04 % ID/g and 0.66 ± 0.08 % ID/g
Pancreas, 60 min post-injection
  Tissue uptake (% ID/g): 0.52 ± 0.05 % ID/g
Pancreas, 120 min post-injection
  Tissue uptake (% ID/g): 0.43 ± 0.06 % ID/g
In words
  in vivo defluorination (bone uptake 5 to 120 min): no defluorination
Small intestine, 5 min post-injection
  Tissue uptake (% ID/g): 0.75 ± 0.57 % ID/g
Small intestine, 30 min post-injection
  Tissue uptake (% ID/g): 1.40 ± 0.36 % ID/g
Small intestine, 60 min post-injection
  Tissue uptake (% ID/g): 1.42 ± 0.36 % ID/g
Small intestine, 120 min post-injection
  Tissue uptake (% ID/g): 0.87 ± 0.21 % ID/g
Spleen, 5 min post-injection
  Tissue uptake (% ID/g): 0.86 ± 0.58 % ID/g
Spleen, 30 min post-injection
  Tissue uptake (% ID/g): 0.54±0.03 % ID/g and 0.54 ± 0.06 % ID/g
Spleen, 60 min post-injection
  Tissue uptake (% ID/g): 0.47 ± 0.05 % ID/g
Spleen, 120 min post-injection
  Tissue uptake (% ID/g): 0.37 ± 0.05 % ID/g
Striatum, 5 min post-injection
  Tissue uptake (% ID/g): 0.32 ± 0.21 % ID/g
Striatum, 30 min post-injection
  Tissue uptake (% ID/g): 0.46 ± 0.05 % ID/g
Striatum, 60 min post-injection
  Tissue uptake (% ID/g): 0.43 ± 0.29 % ID/g
Striatum, 120 min post-injection
  Tissue uptake (% ID/g): 0.67 ± 0.07 % ID/g
Thymus, 5 min post-injection
  Tissue uptake (% ID/g): 0.23 ± 0.16 % ID/g
Thymus, 30 min post-injection
  Tissue uptake (% ID/g): 0.30 ± 0.03 % ID/g
Thymus, 60 min post-injection
  Tissue uptake (% ID/g): 0.30 ± 0.04 % ID/g
Thymus, 120 min post-injection
  Tissue uptake (% ID/g): 0.31 ± 0.05 % ID/g
5 min post-injection
  rat brain uptake: 0.48±0.06 ID %/g
30 min post-injection
  rat brain uptake: 0.48±0.02 ID %/g
60 min post-injection
  rat brain uptake: 0.60±0.04 ID %/g
120 min post-injection
  rat brain uptake: 0.65±0.03 ID %/g
thalamus, 5 min post-injection
  Tissue uptake (% ID/g): 0.42 ± 0.31 % ID/g
thalamus, 30 min post-injection
  Tissue uptake (% ID/g): 0.53 ± 0.03 % ID/g
thalamus, 60 min post-injection
  Tissue uptake (% ID/g): 0.64 ± 0.06 % ID/g
thalamus, 120 min post-injection
  Tissue uptake (% ID/g): 0.70 ± 0.15 % ID/g
Total brain, 5 min post-injection
  Tissue uptake (% ID/g): 2.65 ± 1.63 % ID/g
Total brain, 30 min post-injection
  Tissue uptake (% ID/g): 3.41 ± 0.29 % ID/g
Total brain, 60 min post-injection
  Tissue uptake (% ID/g): 4.12 ± 0.70 % ID/g
Total brain, 120 min post-injection
  Tissue uptake (% ID/g): 4.58 ± 0.92 % ID/g
